Test [1] has as its target Xanthine dehydrogenase/oxidase (Homo sapiens, UniProt P47989). The test is described as follows: Competitive inhibition of Xanthine oxidase (unknown origin) using xanthine as substrate preincubated for 1 to 5 mins followed by substrate addition by Lineweaver-Burk plot analysis.
The target in test [2] is NACHT, LRR and PYD domains-containing protein 3 (Homo sapiens, UniProt Q96P20). The test is described as follows: Inhibition of NLRP3 inflammasome in human THP1 cells assessed as reduction in MSU-induced IL-1beta production preincubated for 1 hr followed by MSU stimulation measured after 6 hrs. Format: cell-based.
Sequence of NACHT, LRR and PYD domains-containing protein 3 (Q96P20 whole entry, the tested form may be a part): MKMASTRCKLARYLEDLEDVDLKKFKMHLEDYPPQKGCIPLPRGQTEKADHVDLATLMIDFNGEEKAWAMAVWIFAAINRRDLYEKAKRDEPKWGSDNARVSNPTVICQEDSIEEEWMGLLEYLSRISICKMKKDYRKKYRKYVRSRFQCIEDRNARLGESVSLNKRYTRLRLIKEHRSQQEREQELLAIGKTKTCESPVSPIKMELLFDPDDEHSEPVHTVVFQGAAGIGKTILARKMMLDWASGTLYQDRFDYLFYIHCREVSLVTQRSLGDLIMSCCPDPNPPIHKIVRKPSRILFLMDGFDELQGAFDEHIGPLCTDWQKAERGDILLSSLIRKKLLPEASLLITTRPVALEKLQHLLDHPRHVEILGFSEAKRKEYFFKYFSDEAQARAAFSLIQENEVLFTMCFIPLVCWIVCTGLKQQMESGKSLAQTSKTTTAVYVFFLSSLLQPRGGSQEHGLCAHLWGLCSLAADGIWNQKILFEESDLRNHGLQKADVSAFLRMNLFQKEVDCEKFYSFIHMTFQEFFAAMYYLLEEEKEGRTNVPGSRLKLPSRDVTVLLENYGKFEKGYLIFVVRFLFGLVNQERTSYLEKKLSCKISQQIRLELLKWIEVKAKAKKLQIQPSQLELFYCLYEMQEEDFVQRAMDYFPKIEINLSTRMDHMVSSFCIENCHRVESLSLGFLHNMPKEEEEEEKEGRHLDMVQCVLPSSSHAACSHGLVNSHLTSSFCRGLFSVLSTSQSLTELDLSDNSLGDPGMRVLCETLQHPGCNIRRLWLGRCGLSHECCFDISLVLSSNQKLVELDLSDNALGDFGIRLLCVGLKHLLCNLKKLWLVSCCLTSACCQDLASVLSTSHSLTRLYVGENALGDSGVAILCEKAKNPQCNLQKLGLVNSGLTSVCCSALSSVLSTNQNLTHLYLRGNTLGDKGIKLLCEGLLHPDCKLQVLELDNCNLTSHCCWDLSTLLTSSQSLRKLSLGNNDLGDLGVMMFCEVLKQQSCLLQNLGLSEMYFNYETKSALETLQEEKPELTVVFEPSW
Test [3] relates to Mus musculus. The test can be described thus: In vivo inhibition of XOD activity in liver of Kunming mouse model of potassium oxonate-induced hyperuricemia at 10 mg/kg, po treated 1 hr post potassium oxonate addition measured after 1 hr relative to control. In kind it is functional.
Test [4] has as its system Mus musculus. The test can be described thus: In vivo inhibition of XOD activity in liver of Kunming mouse model of potassium oxonate-induced hyperuricemia administered po 1 hr post potassium oxonate addition measured after 1 hr. In kind it is functional, organism-based.
Test [5] relates to Mus musculus. The test can be described thus: Hypouricemic effect in Kunming mouse assessed as inhibition of hepatic XOD activity at 2.5 mg/kg, po measured after 1 hr relative to control. In kind it is organism-based.
Test [6] relates to Rattus norvegicus. The test can be described thus: Antiarthritic activity in MSU-induced acute gouty arthritis Sprague-Dawley rat model assessed as reduction in ankle swelling by measuring perimeter of ankle at 2.5 mg/kg, po qd pretreated via gavage for 5 days followed by MSU treatment at 1 hr post last dose measured after 4 hrs (reference value: 3.18 +/- 0.64 cm). In kind it is functional.

In test [7] the test system is Rattus norvegicus. The test can be described thus: Antiarthritic activity in MSU-induced acute gouty arthritis Sprague-Dawley rat model assessed as reduction in ankle swelling by measuring perimeter of ankle at 5 mg/kg, po qd pretreated via gavage for 5 days followed by MSU treatment at 1 hr post last dose measured after 8 hrs (reference value: 3.27 +/- 0.56 cm). In kind it is functional.

Test [8] deals with Rattus norvegicus. The test can be described thus: Antiarthritic activity in MSU-induced acute gouty arthritis Sprague-Dawley rat model assessed as reduction in ankle swelling by measuring perimeter of ankle at 10 mg/kg, po qd pretreated via gavage for 5 days followed by MSU treatment at 1 hr post last dose measured after 8 hrs (reference value: 3.27 +/- 0.56 cm). Format: functional.

Test [9] relates to Rattus norvegicus. The test can be described thus: Antiarthritic activity in MSU-induced acute gouty arthritis Sprague-Dawley rat model assessed as reduction in ankle swelling by measuring perimeter of ankle at 2.5 mg/kg, po qd pretreated via gavage for 5 days followed by MSU treatment at 1 hr post last dose measured after 12 hrs (reference value: 3.51 +/- 0.52 cm). In kind it is functional.

In test [10] the test system is Rattus norvegicus. The test can be described thus: Antiarthritic activity in MSU-induced acute gouty arthritis Sprague-Dawley rat model assessed as reduction in ankle swelling by measuring perimeter of ankle at 5 mg/kg, po qd pretreated via gavage for 5 days followed by MSU treatment at 1 hr post last dose measured after 12 hrs (reference value: 3.51 +/- 0.52 cm). Format: functional.

Test [11] deals with Rattus norvegicus. The test is described as follows: Antiarthritic activity in MSU-induced acute gouty arthritis Sprague-Dawley rat model assessed as reduction in ankle swelling by measuring perimeter of ankle at 2.5 mg/kg, po qd pretreated via gavage for 5 days followed by MSU treatment at 1 hr post last dose measured after 24 hrs (reference value: 3.35 +/- 0.5 cm). Format: functional.

The subject of test [12] is Rattus norvegicus. The test is described as follows: Inhibition of MSU-induced TNFalpha level in serum of acute gouty arthritis Sprague-Dawley rat model at 2.5 to 10 mg/kg, po qd pretreated via gavage for 5 days followed by MSU treatment at 1 hr post last dose measured up to 24 hrs by ELISA. In kind it is functional, organism-based. In general terms: In an ELISA, binding on a coated surface is turned into a signal by an enzyme label.

For test [13], the system named is Rattus norvegicus. The test is described as follows: Inhibition of MSU-induced IL-1beta level in synovial homogenate of acute gouty arthritis Sprague-Dawley rat model at 2.5 to 10 mg/kg, po qd pretreated via gavage for 5 days followed by MSU treatment at 1 hr post last dose measured up to 24 hrs by ELISA. Format: functional, organism-based.
Test [14] relates to Rattus norvegicus. The test can be described thus: Inhibition of MSU-induced TNFalpha level in synovial homogenate of acute gouty arthritis Sprague-Dawley rat model at 2.5 to 10 mg/kg, po qd pretreated via gavage for 5 days followed by MSU treatment at 1 hr post last dose measured up to 24 hrs by ELISA. In kind it is functional, organism-based.
Test [15] has as its system Rattus norvegicus. The test is described as follows: Inhibition of MSU-induced NLRP3 protein level in synovial homogenate of acute gouty arthritis Sprague-Dawley rat model at 2.5 to 10 mg/kg, po qd pretreated via gavage for 5 days followed by MSU treatment at 1 hr post last dose measured up to 24 hrs by Western blot method. In kind it is functional, organism-based. A general note: Immunoblotting shows a protein as a band on a membrane.

The test system of test [16] is Rattus norvegicus. The test is described as follows: Inhibition of MSU-induced MyD88 protein level in synovial homogenate of acute gouty arthritis Sprague-Dawley rat model at 2.5 to 10 mg/kg, po qd pretreated via gavage for 5 days followed by MSU treatment at 1 hr post last dose measured up to 24 hrs by Western blot method. In kind it is functional, organism-based.

Test [17] concerns Rattus norvegicus. The test is described as follows: Inhibition of MSU-induced p65 NFkappaB protein level in synovial homogenate of acute gouty arthritis Sprague-Dawley rat model at 2.5 to 10 mg/kg, po qd pretreated via gavage for 5 days followed by MSU treatment at 1 hr post last dose measured up to 24 hrs by Western blot method. In kind it is functional, organism-based.

SMILES strings stand for the structures. Calls of active or inactive are those of the source. The rule behind the calls is not given here.

Sequence of Xanthine dehydrogenase/oxidase (P47989 whole entry, the tested form may be a part): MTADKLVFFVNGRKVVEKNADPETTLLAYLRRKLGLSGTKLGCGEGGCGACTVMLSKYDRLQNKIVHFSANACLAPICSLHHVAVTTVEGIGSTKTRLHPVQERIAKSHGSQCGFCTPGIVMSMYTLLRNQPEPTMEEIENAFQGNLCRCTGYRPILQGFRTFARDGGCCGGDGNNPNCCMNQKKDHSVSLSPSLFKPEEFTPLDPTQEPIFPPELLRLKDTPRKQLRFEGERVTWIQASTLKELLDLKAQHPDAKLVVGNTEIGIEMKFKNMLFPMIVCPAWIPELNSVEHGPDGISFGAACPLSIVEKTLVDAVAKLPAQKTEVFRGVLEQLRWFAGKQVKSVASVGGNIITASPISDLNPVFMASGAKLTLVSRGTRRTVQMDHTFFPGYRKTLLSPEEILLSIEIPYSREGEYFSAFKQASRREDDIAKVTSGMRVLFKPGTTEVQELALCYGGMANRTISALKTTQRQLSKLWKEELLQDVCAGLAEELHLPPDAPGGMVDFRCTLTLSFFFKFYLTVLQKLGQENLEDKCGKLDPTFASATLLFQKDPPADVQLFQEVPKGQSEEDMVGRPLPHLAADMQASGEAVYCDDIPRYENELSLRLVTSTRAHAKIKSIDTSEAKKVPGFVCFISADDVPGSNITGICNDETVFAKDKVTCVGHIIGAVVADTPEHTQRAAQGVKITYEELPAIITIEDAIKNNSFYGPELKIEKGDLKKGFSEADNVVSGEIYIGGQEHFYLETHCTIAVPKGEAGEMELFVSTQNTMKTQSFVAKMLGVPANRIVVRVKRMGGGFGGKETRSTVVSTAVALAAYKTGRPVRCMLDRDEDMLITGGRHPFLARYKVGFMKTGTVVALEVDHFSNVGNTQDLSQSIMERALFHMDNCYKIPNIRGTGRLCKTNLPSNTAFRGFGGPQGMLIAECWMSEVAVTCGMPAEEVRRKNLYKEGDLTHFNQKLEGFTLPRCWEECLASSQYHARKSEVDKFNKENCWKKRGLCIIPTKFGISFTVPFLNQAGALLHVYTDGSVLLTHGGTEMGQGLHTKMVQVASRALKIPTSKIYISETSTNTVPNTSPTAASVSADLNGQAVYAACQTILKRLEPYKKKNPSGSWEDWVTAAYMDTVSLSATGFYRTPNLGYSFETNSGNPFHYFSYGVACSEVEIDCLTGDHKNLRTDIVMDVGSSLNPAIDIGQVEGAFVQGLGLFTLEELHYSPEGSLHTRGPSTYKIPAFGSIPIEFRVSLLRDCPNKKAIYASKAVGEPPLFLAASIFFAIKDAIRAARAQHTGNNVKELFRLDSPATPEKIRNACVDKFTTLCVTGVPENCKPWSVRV

In test [1], `COc1ccc(C/C(=N\O)c2nc3ccc(OC)cc3o2)cc1` gave an inhibitory constant (Ki) of 2890 nM. Besides, in test [2], the IC50 turned out to be 1220 nM. In addition, the inhibition in vivo at 10 mg/kg in test [3] is 41.9%. Moreover, the inhibition entry in test [4] is “Dose-dependent effect”. For the same compound, the inhibition at 2.5 mg/kg in test [5] was 3.7%. Also, the Activity in test [6] was found to be 2.95 cm; in [7], 2.88 cm; in test [8], 2.72 cm; in [9], 3.14 cm; in test [10], 2.99 cm; in test [11] it was 2.97 cm. Besides, the inhibition entry in [12], in test [13], in [14], in test [15], in test [16] and in test [17] was “Active” throughout.

The term Ki denotes the dissociation constant of the complex between target and ligand, obtained from inhibition or displacement. What is called IC50 is the point on the concentration scale where inhibition reaches its midpoint. As a reminder, the inhibition in vivo is the change of the read-out against control, counted positive when it falls. Low values mean a response near the control, high ones a response far below the control. A word on the inhibition: it is the drop in the measured response relative to a control, in per cent.

The values are drawn from ChEMBL document CHEMBL4219086, “Development of benzoxazole deoxybenzoin oxime and acyloxylamine derivatives targeting innate immune sensors and xanthine oxidase for treatment of gout” (Bioorg Med Chem, 2018).
